Experimental data: article PMC3608651, “A Broad Profile of Co-Dominant Epitopes Shapes the Peripheral Mycobacterium tuberculosis Specific CD8+ T-Cell Immune Response in South African Patients with Active Tuberculosis” (PLoS ONE, 2013)
Like-named read-outs stand apart in the source and are kept apart here.

What was measured:
Format in all cases: binding
HLA-A*68:01 = HLA-A*68:01 (Homo sapiens, UniProt P04439, A269V/D185E/E176V/E277Q/E87N/F33Y/G231S/I121M/I166T/I218V/L180W/L300P/L318F/N151K/P208A/P217A/Q86R/R169H/T345S); settings: duplicated experiments, positive binder >40%
HLA-B*58:01 [1] = target: T1, HLA-B*58:01 (Homo sapiens, UniProt P01889, A329T/C349S/D201E/D98Y/E176V/E187L/E204Q/E69T/G107R/I218V/I90N/K202T/L105A/L119I/N104I/N87E/Q89R/Q94S/R106L/R155S/R180L/R86G/S101N/S121R/S35A/S48A/T118I/V127L/V306I/V36M/Y140S/Y91M); settings: duplicated experiments, positive binder >40%
HLA-B*58:01 [2] = target: T1, HLA-B*58:01
HLA-B*58:01 [3] = target: T1, HLA-B*58:01; settings: time points 0-8 h
HLA-C*07:01 = HLA-C*07:01 (Homo sapiens, UniProt P10321, K90N/S123Y); settings: duplicated experiments, positive binder >40%
HLA-A*02:01 = HLA-A*02:01 (Homo sapiens, UniProt P04439, D140Y/D185E/D98H/E176V/E277Q/G131W/G231S/I119V/I121R/I166T/I218V/L300P/L318F/N151K/N90K/P208A/P217A/Q86G/Q94H/R138H/R169H/T345S); settings: plate-bound monomer 0.5 µg/ml, duplicated experiments, positive binder >40%
HLA-A*24:02 = HLA-A*24:02 (Homo sapiens, UniProt P04439, D101N/D140Y/D185E/E176V/E190D/F33S/G103R/G107R/I119L/I121M/I306V/K335N/L105A/L180Q/L300P/N151K/N90K/Q86E/Q94H/R106L/R138H/R89G/T104I/T345S/V100E/W191G/Y123F); settings: duplicated experiments, positive binder >40%
HLA-A*30:01 = HLA-A*30:01 (Homo sapiens, UniProt P04439, D140H/D185E/E176W/F33S/G80R/H175R/K168Q/R138E/R41S); settings: duplicated experiments, positive binder >40%
HLA-A*30:02 [4] = target: T2, HLA-A*30:02 (Homo sapiens, UniProt P04439, D101N/D140H/D185E/E176R/F33S/G80R/H175R/K168Q/Q94H/R138E/R41S/V100E); settings: duplicated experiments, positive binder >40%
HLA-A*30:02 [5] = target: T2, HLA-A*30:02
HLA-A*30:02 [6] = target: T2, HLA-A*30:02; settings: time points 0-8 h
HLA-B*07:02 = HLA-B*07:02 (Homo sapiens, UniProt P01889); settings: percent relative the binding of positive control peptide […]; duplicated experiments; positive binder >40%
[7] = percent relative the binding of positive control peptide […]
[8] = percent relative the binding of positive control peptide FLPSDFFPSV
[9] = percent relative the binding of positive control peptide RYLKDQQLL
[10] = percent relative the binding of positive control peptide KTKDIVNGL
[11] = percent relative the binding of positive control peptide KIQNFRVYY
[12] = peptide titrated 10−4 to 10−9 M
[13] = percent relative the binding of positive control peptide KTGGPIYKR
[14] = percent relative the binding of positive control peptide IAMESIVIW
[15] = percent relative the binding of positive control peptide KYFDEHYEY

Sequence	Bind A*68:01 (HLA-A*68:01; [7]) [%]	Bind B*58:01 (HLA-B*58:01 [1]; [7]) [%]	Aff B*58:01 (ED50) (HLA-B*58:01 [2]) [nM]	O-rate B*58:01 (t1/2) (HLA-B*58:01 [3]) [h]	Bind C*07:01 (HLA-C*07:01; [7]) [%]	Bind A*02:01 (HLA-A*02:01; [7]) [%]	Bind A*24:02 (HLA-A*24:02; [7]) [%]	Bind A*30:01 (HLA-A*30:01; [7]) [%]	Bind A*30:02 (HLA-A*30:02 [4]; [7]) [%]	Aff A*30:02 (ED50) (HLA-A*30:02 [5])	O-rate A*30:02 (t1/2) (HLA-A*30:02 [6]) [h]	Bind B*07:02 (HLA-B*07:02) [%]	Bind A*02:01 (HLA-A*02:01; [8]) [%]	Bind A*24:02 (HLA-A*24:02; [9]) [%]	Bind A*30:01 (HLA-A*30:01; [10]) [%]	Bind A*30:02 (HLA-A*30:02 [4]; [11]) [%]	Aff A*30:02 (ED50) (HLA-A*30:02 [5]; [12]) [M]	Bind A*68:01 (HLA-A*68:01; [13]) [%]	Bind B*58:01 (HLA-B*58:01 [1]; [14]) [%]	Bind C*07:01 (HLA-C*07:01; [15]) [%]
DTGITYQAW [Rv0288_46–54]	7	41	1000	2.3	0	–	–	–	–	–	–	–	–	–	–	–	–	–	–	–
GITYQAWQA [Rv0288_48–56]	0	46	90	0.2	0	–	–	–	–	–	–	–	–	–	–	–	–	–	–	–
MKGDLQSSL	19	0	–	–	63	16	22	14	90	2e-05 M	2.8	17	–	–	–	–	–	–	–	–
MSQIMYNYP [Rv0288_1–9]	29	57	4000	1.1	10	–	–	–	–	–	–	–	–	–	–	–	–	–	–	–
MTEQQWNFA [Rv3875_1–9]	–	–	–	–	–	–	–	–	–	–	1.4	2	13	0	0	52	2e-08	25	2	0
NLKFQDAYN	9	0	–	–	7	8	0	0	123	1e-05 M	0.4	0	–	–	–	–	–	–	–	–
PAVYLLDGL	2	0	–	–	17	9	38	0	120	9E -08 M	1	63	–	–	–	–	–	–	–	–
QAALQSAWQ [Rv0288_36–44]	17	62	50000	0.5	7	–	–	–	–	–	–	–	–	–	–	–	–	–	–	–
QQKWDATAT [Rv3875_55–63]	–	–	–	–	–	–	–	–	–	–	1.7	9	0	0	29	60	9e-08	9	8	4
RAQDDYNGW	2	41	–	–	2	0	65	11	119	5e-07 M	1.2	0	–	–	–	–	–	–	–	–
RAYHSMSST [Rv0288_67–75m1]	–	32	20	0.4	0	–	–	–	7	–	–	14	–	–	–	–	–	–	–	–
RSSNLKFQD	11	14	–	–	64	11	26	0	104	1E -05 M	1.6	3	–	–	–	–	–	–	–	–
RTISEAGQA [Rv3875_74–82]	–	–	–	–	–	–	–	–	–	–	2	11	18	0	19	98	3e-08	4	34	8
SAIQGNVTS [Rv3875_16–24]	–	–	–	–	–	–	–	–	–	–	0.9	4	1	15	11	67	3e-08	29	12	12
SAMILAAYH	69	0	–	–	15	9	0	0	111	4e-08 M	2.2	7	–	–	–	–	–	–	–	–
SAWQGDTGI [Rv0288_41–49]	30	46	30	0.6	12	–	–	–	–	–	–	–	–	–	–	–	–	–	–	–
SNLKFQDAY	18	14	–	–	52	11	23	0	124	2e-07 M	1.6	0	–	–	–	–	–	–	–	–
SSTHEANTM [Rv0288_73–81]	0	41	2000	0.8	7	–	–	–	–	–	–	–	–	–	–	–	–	–	–	–
TATELNNAL [Rv3875_61–69]	–	–	–	–	–	–	–	–	–	–	2.6	12	11	15	4	106	9e-09	13	0	5
TGITYQAWQ [Rv0288_47–55]	8	40	4000	0.8	0	–	–	–	–	–	–	–	–	–	–	–	–	–	–	–
TYQAWQAQW [Rv0288_50–58]	0	119	100	1.0	0	–	–	–	–	–	–	–	–	–	–	–	–	–	–	–
VFNFPPNGT	3	33	–	–	0	34	25	3	113	3e-05 M	1.2	0	–	–	–	–	–	–	–	–
WGGSGSEAY [Rv3875_43–51]	–	–	–	–	–	–	–	–	–	–	1.1	7	3	0	18	89	4e-07	2	2	21
YQAWQAQWN [Rv0288_51–59]	23	52	2000	2.0	0	–	–	–	–	–	–	–	–	–	–	–	–	–	–	–
